# Assay results published in ChEMBL document CHEMBL4483862, “Open-source discovery of chemical leads for next-generation chemoprotective antimalarials” (2018).
# Tested on: Plasmodium berghei
# Assay: Luciferase/luciferin-expressing antifolate-resistant parasites were used to infect a culture of HepG2 cells that were pre-incubated with compounds. Infected hepatocytes emit light due to the luciferase reaction. Assay results are presented as the percent inhibition of light emission compared to control. […]
# Format: functional
# Details: sporozoite; for IC50: read-out: LUCIFERASE INFECTION ASSAY - IC50; for IC90: read-out: LUCIFERASE INFECTION ASSAY - IC90
SMILES,IC50 [µM],IC90 [µM]
CN1C(=O)Cc2cc(C3=NNC(=Nc4ccccc4F)SC3)ccc21,> 10,> 10
O=C(COCc1nc2ccccc2s1)NCc1ccc(Cn2cccn2)cc1,> 10,> 10
Cc1cc(C)c(OCC(=O)N2CCCC2c2nc3ccccc3[nH]2)c(C)c1 (stereo not given),> 10,> 10
CC(C)(C)OC(=O)Nc1ccc(C(=O)NCC2(c3ccccc3)CC2)cc1,> 10,> 10
CC1CSC(N(C(=O)COc2ccccc2F)c2ccc(Cl)cc2)=N1 (stereo not given),> 10,> 10
Cc1nc(-c2ccc(F)cc2)sc1C(=O)N1CCc2sccc2C1,> 10,> 10
CC1CN(C(=O)c2ccc(CN3C(=O)CNC3=O)cc2)CCO1 (stereo not given),> 10,> 10
COc1ccc(C(CNC(=O)c2cc(Br)ccc2F)N(C)C)cc1 (stereo not given),> 10,> 10
N#CCCN(CCC#N)C(=O)CSc1nnc(CCC(N)=O)n1C1CC1,> 10,> 10
COc1cc(OC)c(C(=O)N2CC=C(c3c[nH]c4ccccc34)CC2)cc1OC,> 10,> 10
Cc1cc(C)n(CC(=O)n2cc(C(=O)c3cc(F)ccc3O)cn2)n1,> 10,> 10
Clc1ccc2c(N(Cc3ccco3)Cc3cccs3)ncnc2c1,> 10,> 10
Cc1oc(-n2cccc2)c(C#N)c1C(=O)Nc1ccn(C)n1,> 10,> 10
O=C1NC2=C(C(=O)N(CCC3=CCCCC3)C2)C(c2ccc(F)cc2)N1 (stereo not given),> 10,> 10
COc1ccc(OCCn2nc(-c3cccs3)c3ccccc3c2=O)cc1,3.71,> 10
Cc1nc2ncnn2c(C)c1CC(=O)NCCCSc1ccc(F)cc1,> 10,> 10
CC(Sc1cc(C(N)=O)c2ccccc2n1)C(=O)Nc1cccc(F)c1 (stereo not given),> 10,> 10
CN(Cc1nc2ccccc2s1)C(=O)c1cccc(C#N)c1,> 10,> 10
COc1ccc(C2CCCN2Cc2ccc(C(N)=O)cc2)c(OC)c1 (stereo not given),> 10,> 10
CCOc1ccc(OCCC(=O)NCc2cccc(C(F)(F)F)c2)cc1,> 10,> 10
Cc1ccc(C)c(NC(=O)CN(C)C(=O)CN2CCN(c3ccccc3)CC2)c1,> 10,> 10
CCC(=O)c1ccc(OCC(=O)N(C)C2CCc3ccccc32)cc1 (stereo not given),> 10,> 10

SMILES,IC50 [µM],IC90 [µM]
CCCN(CC(=O)Nc1ccccc1C)C(=O)Cn1nnc2ccccc21,> 10,> 10
Cc1nn(C)c2sc(C(=O)N(C)c3nc4ccccc4s3)cc12,> 10,> 10
O=C(c1cnc2nc(N3CCCCC3)sc2c1)c1ccccc1O,6.09,> 10
CC(=O)c1ccc(S(=O)(=O)N(Cc2c(F)cccc2Cl)C2CC2)cc1,> 10,> 10
Cc1cccc(C2NC(=O)NC3=C2C(=O)N(Cc2ccc(F)cc2)C3)c1 (stereo not given),> 10,> 10
Cc1noc(C)c1CSc1nc(C(C)(C)C)nc2c1c(=O)n(C)c(=O)n2C,> 10,> 10
CC(C)n1cc(C(=O)c2ccccc2O)cc1-c1nc2ccccc2o1,> 10,> 10
CN(Cc1ccc(OCc2ccc(Cl)cc2)cc1)C(=O)c1cnn(C)c1,> 10,> 10
Cc1ccc(C(=O)O)cc1NS(C)(=O)=O,> 10,> 10
O=C(Nc1ccc(-c2csc(N3CCOCC3)n2)cc1)c1cccc(F)c1,> 10,> 10
O=C(c1ccoc1)N1CCN(Cc2sc3ccccc3c2Cl)CC1,> 10,> 10
CC(C)(C)c1ccccc1NC(=O)CCC(=O)N1CCC(c2ccccc2)=N1,> 10,> 10
COc1ccc(C)cc1C(C)NC(=O)c1cnn(Cc2ccccc2)c1 (stereo not given),> 10,> 10
CN(Cc1ccccc1N1CCCCC1)C(=O)c1ccc(NC(=O)C2CC2)s1,> 10,> 10
O=C(Nc1ccc(CNC(=O)C2Cc3cc(Cl)ccc3O2)cc1)c1ccco1 (stereo not given),> 10,> 10
CSc1nc2ccc(NC(=O)c3[nH]c4c(c3C)C(=O)CCC4)cc2s1,> 10,> 10
O=C(NCC1(c2ccccc2)CCC1)c1ccc(Cn2nnc3ccccc32)cc1,> 10,> 10
COc1ccc(C)cc1NC(=O)CN(Cc1ccc2c(c1)OCO2)C1CCCC1,> 10,> 10
Cc1cccc(C2NC(=O)NC3=C2C(=O)N(CCc2ccccc2)C3)c1 (stereo not given),> 10,> 10
COc1ccc(C(NC(=O)c2ccc(-n3cccc3)cc2)c2nccn2C)cc1 (stereo not given),> 10,> 10
C=CCN(C(=O)c1ccccc1Br)c1nc2ccccc2s1,> 10,> 10
Cc1cc(C(=O)COC(=O)c2ccc(Cl)cc2N)c(C)n1CC1CCCO1 (stereo not given),> 10,> 10

SMILES,IC50 [µM],IC90 [µM]
O=S(=O)(Nc1ccc(S(=O)(=O)NC2CC2)cc1)c1cc(F)cc(F)c1,> 10,> 10
O=C(CCCNC(=O)c1ccsc1)Nc1ccc(OC(F)(F)F)cc1,> 10,> 10
Cc1cc(C)n(CCCNC(=O)Cc2c(C)nc3ncnn3c2C)n1,> 10,> 10
Cc1ccc(C)c(NC(=O)CN(C)C(=O)CN(C)C(C)c2ccccc2)c1 (stereo not given),> 10,> 10
N#Cc1cccc(NC(=O)CNc2cc(C(F)(F)F)ccc2N2CCCC2)c1,> 10,> 10
O=C(Cc1nc(=O)c2c3c(sc2[nH]1)CCCC3)c1c[nH]c2ccccc12,> 10,> 10
c1ccc(-c2nnc(SCc3cn4ccccc4n3)nc2-c2ccccc2)cc1,> 10,> 10
O=c1cc(N2CCN(CCOc3ccccc3Cl)CC2)nc2ccccn12,> 10,> 10
CCc1ccc2nc(NC(=O)CN(C)C(=O)c3ccco3)sc2c1,> 10,> 10
CCc1ccccc1NCC(=O)Nc1cc(Cl)ccc1-n1cncn1,> 10,> 10
CNC(=O)c1ccc(S(=O)(=O)Nc2cccc(-c3nnnn3C)c2)cc1,> 10,> 10
O=C(c1ccc(-c2ccc3c(c2)OCCO3)s1)N1CCc2ccccc21,> 10,> 10
CC(=O)NCc1ccc(-c2csc(NC(=O)CCc3ccco3)n2)cc1,> 10,> 10
O=C(Nc1ccccc1)c1ccc(CN2CCCC(C(F)(F)F)C2)cc1 (stereo not given),2.2,8.25
CC(=O)N1CCc2cc(NC(=O)CNc3ccc(C)cc3C)ccc21,> 10,> 10
COc1ccc2cc(CN(C)C(=O)c3cnn(Cc4ccccc4)c3)ccc2c1,2.85,> 10
CCCOc1ccccc1NC(=O)COc1nnc2ccccn12,> 10,> 10
CC(=O)c1c(F)cccc1N1CCC(c2nc3ccccc3[nH]2)CC1,2.87,5.87
COc1ccc(S(=O)(=O)N2CCN(CC(=O)N3CCCCCC3)CC2)cc1,> 10,> 10
CC(C)c1cccc(Nc2ccc3nnc(C(F)(F)F)n3n2)c1,> 10,> 10
O=C(Cn1nc(-c2ccco2)oc1=O)N(Cc1ccccc1)c1ccccc1,> 10,> 10
